The values that follow are results of earlier work, collected in PMC5618157, “The Role of Disulfide Bond Replacements in Analogues of the Tarantula Toxin ProTx-II and Their Effects on Inhibition of the Voltage-Gated Sodium Ion Channel Nav1.7” (Journal of the American Chemical Society, 2017).

For one data set, the system named is Nav1.7. As to conditions: read-out: IC50 against Nav1.7. An excerpt: ProTx-II has been the subject of particular interest from researchers as a possible lead for the treatment of chronic nociceptive pain.[4] […] Nav1.7 has been implicated as a target for the treatment of chronic pain after loss-of-function mutations in the corresponding SCN9A gene left their carriers unable to feel pain, with seemingly no ...

Another data set has as its system mouse model (analgesia). As to conditions: injections of ProTx-II. The text has this:
Despite these structural studies, much remains unknown about the mechanism of action of ProTx-II on Nav1.7. […] Instead, studies into the interaction of ProTx-II and HwTx-IV with hNav1.7 proposed that both peptides interact with the domain II voltage-sensing domain (VSD), with ProTx-II also trapping the domain IV VSD in the resting configuration.[38] Mutagenesis experiments on ProTx-II by Park and co-workers,[36] and investiga ...

In the case of ProTx-II, in the data set on Nav1.7, the half-maximal inhibitory concentration (IC50) (in general, the midpoint of a concentration-inhibition curve) was 0.3 nM. Also, the “analgesia in a mouse model” value in the data set with mouse model (analgesia) is “failed to elicit analgesia”.
